From paper PMC9412534, “Diindolylmethane Derivatives: New Selective Blockers for T-Type Calcium Channels” (Membranes, 2022)
“Also recorded” adds a separate entry of the source. Where two headings read alike, the source gives them in different places.

Experiments:
Assay type in all cases: cell-based
CaV3.2 = CaV3.2 (Homo sapiens, UniProt O95180); test: T-type calcium channel window current FLIPR assay, CaV3.2
Method: (§1) The human embryonic kidney 293 (HEK 293) cell lines (from Emmanuel Bourinet, Montpellier, France) stably expressing CaV3.2 or CaV3.3 were cultured under 5% carbon dioxide at 37 °C in Dulbecco’s Modified Eagle Medium (DMEM) Glutamax (Gibco, Life Technologies, Carlsbad, CA, USA) supplemented with 10% (v/v) fetal bovine serum (FBS), 100 U/mL penicillin, 100 μg/mL streptomycin (Gibco, Life Technologies, Carlsbad, CA, USA), and 750 μg/mL geneticin (G418) (Gibco, Life Technologies). The Chinese Hamster Ovary (CHO) cell lines (Emmanuel Bourinet, Montpellier, France) expressing CaV3.1 were cultured under 5% carbon dioxide at 37 °C in Alpha Minimum Essential Media (MEM) Glutamax (Gibco, Life Technologies), supplemented with 10% (v/v) fetal bovine serum (FBS) and 300 μg/mL geneticin (G418) (Gibco, Life Technologies). The human neuroblastoma SH-SY5Y cells (Victor Diaz, Goettingen, Germany) were cultured under 5% carbon dioxide at 37 °C in RPMI 1640 antibiotic-free medium (Invitrogen, Carlsbad, CA, USA), supplemented with 15% FBS and 2 mM GlutaMAX™ (Invitrogen). D-PBS (Gibco, Life Technologies) was used to wash the cells, and 0.25% Trypsin-EDTA (Gibco, Life Technologies) was used to detach cells from the flask surface. They were split in a ratio of 1:5 (ideally 1000 cells/cm^2) when they reached 70–80% confluence (every 2–3 days). Transiently transfected CaV3.1 HEK293 T cells were used in FLIPR Assays. HEK 293 T cells were cultured under 5% carbon dioxide at 37 °C in DMEM supplemented with 10% (v/v) FBS. D-PBS was used to wash the cells, and 0.25% Trypsin-EDTA was used to detach cells from the flask surface. The cells were split and seeded at 6 million cells per T175 flask, to reach 70–80% confluence after 24 h. The next day, 12 μg DNA of human CaV3.1 was incubated in 900 μL serum-free DMEM with 36 μL FuGENE HD transfection reagent (Promega Corporation, Madison, WI, USA) (1:3 DNA/Fugene ratio) for 20 min, and then the mixture was added into the cell flask slowly, drop by drop. After the transfection, the cells were cultured under 5% carbon dioxide at 37 °C for 24 h and then moved to a 28 °C incubator.
HEK 293 cells stably expressing CaV3.2 or CaV3.3 were seeded into 384-well black wall clear bottom plates (Corning) at a density of 30,000 cells per well. Transiently transfected CaV3.1HEK293 T cells were seeded into 384-well black wall clear bottom plates at a density of 60,000 cells per well. Once the cells reached 90–95% confluence after 24 h, the media were removed from the wells and replaced with 20 μL of 10% calcium 4 dye (Molecular Devices, Sunnyvale, CA, USA) in HBSS-HEPES (containing 5 mM KCl, 10 mM HEPES, 140 mM NaCl, 10 mM glucose, and 0.5 mM CaCl2, pH 7.4) with 0.1% bovine serum albumin (BSA). The cells were incubated for 30 min at 37 °C in the presence of 5% carbon dioxide. Each well on the reagent plates for the first addition contained 15 μL different concentrations of compounds dissolved in HBSS-HEPES containing 0.1% BSA and <0.5% DMSO and was incubated for 20 min after loaded. Positive and negative controls contained 15 μL of HBSS-HEPES (0.1% BSA) alone. The plates were placed in the FLIPR^TETRA (Molecular Devices, Sunnyvale, CA, USA) programmed to measure maximum fluorescence intensity following a second addition of the agonist 5 mM CaCl2. The fluorescence readings were recorded and converted as described previously, and HBSS-HEPES (0.1% BSA) was used in the second addition as a negative control.

[1] = target: T1, recombinant hCaV3.1 channels (Homo sapiens, UniProt O43497); test: Whole-cell patch-clamp (QPatch), CaV3.1; details: for IC50: whole-cell current, holding potential −90 mV, n = 3–5
T1 construct: host or cells: probably the CHO cell line expressing CaV3.1 (inferred: transient HEK293T cells are assigned to FLIPR only)
T1 sequence (O43497 whole entry): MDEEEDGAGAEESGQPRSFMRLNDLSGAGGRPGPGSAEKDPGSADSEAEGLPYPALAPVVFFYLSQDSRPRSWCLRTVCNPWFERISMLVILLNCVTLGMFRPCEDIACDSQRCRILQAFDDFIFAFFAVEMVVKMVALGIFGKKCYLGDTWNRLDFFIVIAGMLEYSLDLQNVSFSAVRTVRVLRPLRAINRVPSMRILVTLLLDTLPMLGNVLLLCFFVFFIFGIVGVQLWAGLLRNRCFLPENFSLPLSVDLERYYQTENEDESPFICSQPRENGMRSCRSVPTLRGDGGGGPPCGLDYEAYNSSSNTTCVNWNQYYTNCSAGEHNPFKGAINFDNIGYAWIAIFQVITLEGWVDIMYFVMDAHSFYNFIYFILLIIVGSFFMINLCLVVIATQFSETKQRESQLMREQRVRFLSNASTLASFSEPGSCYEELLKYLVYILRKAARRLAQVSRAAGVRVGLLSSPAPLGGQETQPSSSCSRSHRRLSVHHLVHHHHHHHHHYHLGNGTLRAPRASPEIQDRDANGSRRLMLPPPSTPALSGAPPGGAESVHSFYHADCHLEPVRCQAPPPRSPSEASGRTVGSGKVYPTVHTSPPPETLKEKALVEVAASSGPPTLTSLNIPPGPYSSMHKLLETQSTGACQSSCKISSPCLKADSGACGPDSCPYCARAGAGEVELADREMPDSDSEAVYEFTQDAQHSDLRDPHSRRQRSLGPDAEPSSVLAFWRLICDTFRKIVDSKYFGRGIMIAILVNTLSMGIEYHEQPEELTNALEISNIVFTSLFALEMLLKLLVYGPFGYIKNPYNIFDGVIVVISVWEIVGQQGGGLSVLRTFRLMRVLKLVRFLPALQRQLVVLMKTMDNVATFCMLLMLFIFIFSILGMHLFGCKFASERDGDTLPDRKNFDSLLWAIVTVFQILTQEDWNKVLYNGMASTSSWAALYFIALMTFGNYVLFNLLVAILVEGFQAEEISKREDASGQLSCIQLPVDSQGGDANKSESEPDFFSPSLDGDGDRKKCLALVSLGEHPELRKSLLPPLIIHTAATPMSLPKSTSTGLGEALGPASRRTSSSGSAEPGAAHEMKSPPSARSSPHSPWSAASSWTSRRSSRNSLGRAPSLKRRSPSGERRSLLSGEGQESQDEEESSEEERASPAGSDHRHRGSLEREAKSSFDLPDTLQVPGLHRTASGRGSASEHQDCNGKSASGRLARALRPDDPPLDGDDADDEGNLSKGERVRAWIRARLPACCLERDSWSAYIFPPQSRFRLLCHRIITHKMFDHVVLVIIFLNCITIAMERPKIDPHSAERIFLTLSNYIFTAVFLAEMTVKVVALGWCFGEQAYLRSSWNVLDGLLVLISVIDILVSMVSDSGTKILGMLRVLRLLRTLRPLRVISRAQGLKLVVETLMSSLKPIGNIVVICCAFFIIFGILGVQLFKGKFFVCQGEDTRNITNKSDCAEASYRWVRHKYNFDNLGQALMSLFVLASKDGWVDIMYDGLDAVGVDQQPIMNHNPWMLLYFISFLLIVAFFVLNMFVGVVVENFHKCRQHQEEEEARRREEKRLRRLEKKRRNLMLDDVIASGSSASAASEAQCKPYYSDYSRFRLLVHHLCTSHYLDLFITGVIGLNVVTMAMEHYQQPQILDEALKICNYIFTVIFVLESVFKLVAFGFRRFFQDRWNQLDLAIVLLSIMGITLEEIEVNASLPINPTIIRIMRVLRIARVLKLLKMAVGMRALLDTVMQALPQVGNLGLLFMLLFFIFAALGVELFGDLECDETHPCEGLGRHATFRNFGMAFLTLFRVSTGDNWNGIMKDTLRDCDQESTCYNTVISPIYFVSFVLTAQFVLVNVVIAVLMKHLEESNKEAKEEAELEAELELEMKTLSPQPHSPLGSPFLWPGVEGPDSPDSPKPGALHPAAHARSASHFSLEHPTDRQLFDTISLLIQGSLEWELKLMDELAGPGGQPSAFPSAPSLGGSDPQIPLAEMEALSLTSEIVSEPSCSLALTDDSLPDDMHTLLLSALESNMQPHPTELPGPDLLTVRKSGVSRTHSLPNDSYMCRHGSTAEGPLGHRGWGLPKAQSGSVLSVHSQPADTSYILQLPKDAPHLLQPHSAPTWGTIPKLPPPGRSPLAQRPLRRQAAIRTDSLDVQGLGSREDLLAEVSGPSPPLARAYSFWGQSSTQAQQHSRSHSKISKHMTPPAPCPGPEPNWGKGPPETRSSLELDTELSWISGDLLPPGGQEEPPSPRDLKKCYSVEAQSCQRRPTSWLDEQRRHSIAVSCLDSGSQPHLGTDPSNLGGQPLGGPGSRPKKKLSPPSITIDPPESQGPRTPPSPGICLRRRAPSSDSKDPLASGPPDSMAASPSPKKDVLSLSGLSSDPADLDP
Method: as §1
(§2) Whole-cell patch-clamp experiments were performed on an automated electrophysiology platform QPatch 16 X (Sophion Bioscience A/S, Ballerup, Denmark) in single-hole configuration using 16-channel planar patch chip QPlates (Sophion Bioscience A/S). The extracellular recording solution contained, in mM: TEACl 157, MgCl2 0.5, CaCl2 5, and HEPES 10; pH 7.4 adjusted with TEAOH; and osmolarity 320 mOsm. The intracellular pipette solution contained, in mM: CsF 140, EGTA 1, HEPES 10, and NaCl 10; pH 7.2 adjusted with CsOH; and osmolarity 325 mOsm. Compounds were diluted in extracellular recording solution with 0.1% BSA at the concentrations stated (DMSO ≤ 0.1%), and the effects of compounds were compared to the control (extracellular solution with 0.1% BSA) parameters within the same cell. Compounds’ incubation time varied from two (for the highest concentration) to five (for the lowest concentration) minutes by applying the voltage protocol 10–30 times at 10 s intervals to ensure steady-state inhibition was achieved. The effects of compounds were obtained using 200 ms voltage steps to peak potential from a holding potential of −90 mV. Current–voltage (I–V) relationships were obtained by holding the cells at a potential of −100 mV before applying 50 ms pulses to potentials from −75 to +50 mV every 5 s in 5 mV increments. […]

[2] = target: T2, recombinant hCaV3.3 channels (Homo sapiens, UniProt Q9P0X4); test: Whole-cell patch-clamp (QPatch), CaV3.3; details: for extent of block of CaV3.3 whole-cell inward Ca2+ current: QPatch; for IC50: whole-cell current, holding potential −90 mV, n = 3–5
T2 construct: the only CaV3.3-expressing cells described
T2 sequence (Q9P0X4 whole entry): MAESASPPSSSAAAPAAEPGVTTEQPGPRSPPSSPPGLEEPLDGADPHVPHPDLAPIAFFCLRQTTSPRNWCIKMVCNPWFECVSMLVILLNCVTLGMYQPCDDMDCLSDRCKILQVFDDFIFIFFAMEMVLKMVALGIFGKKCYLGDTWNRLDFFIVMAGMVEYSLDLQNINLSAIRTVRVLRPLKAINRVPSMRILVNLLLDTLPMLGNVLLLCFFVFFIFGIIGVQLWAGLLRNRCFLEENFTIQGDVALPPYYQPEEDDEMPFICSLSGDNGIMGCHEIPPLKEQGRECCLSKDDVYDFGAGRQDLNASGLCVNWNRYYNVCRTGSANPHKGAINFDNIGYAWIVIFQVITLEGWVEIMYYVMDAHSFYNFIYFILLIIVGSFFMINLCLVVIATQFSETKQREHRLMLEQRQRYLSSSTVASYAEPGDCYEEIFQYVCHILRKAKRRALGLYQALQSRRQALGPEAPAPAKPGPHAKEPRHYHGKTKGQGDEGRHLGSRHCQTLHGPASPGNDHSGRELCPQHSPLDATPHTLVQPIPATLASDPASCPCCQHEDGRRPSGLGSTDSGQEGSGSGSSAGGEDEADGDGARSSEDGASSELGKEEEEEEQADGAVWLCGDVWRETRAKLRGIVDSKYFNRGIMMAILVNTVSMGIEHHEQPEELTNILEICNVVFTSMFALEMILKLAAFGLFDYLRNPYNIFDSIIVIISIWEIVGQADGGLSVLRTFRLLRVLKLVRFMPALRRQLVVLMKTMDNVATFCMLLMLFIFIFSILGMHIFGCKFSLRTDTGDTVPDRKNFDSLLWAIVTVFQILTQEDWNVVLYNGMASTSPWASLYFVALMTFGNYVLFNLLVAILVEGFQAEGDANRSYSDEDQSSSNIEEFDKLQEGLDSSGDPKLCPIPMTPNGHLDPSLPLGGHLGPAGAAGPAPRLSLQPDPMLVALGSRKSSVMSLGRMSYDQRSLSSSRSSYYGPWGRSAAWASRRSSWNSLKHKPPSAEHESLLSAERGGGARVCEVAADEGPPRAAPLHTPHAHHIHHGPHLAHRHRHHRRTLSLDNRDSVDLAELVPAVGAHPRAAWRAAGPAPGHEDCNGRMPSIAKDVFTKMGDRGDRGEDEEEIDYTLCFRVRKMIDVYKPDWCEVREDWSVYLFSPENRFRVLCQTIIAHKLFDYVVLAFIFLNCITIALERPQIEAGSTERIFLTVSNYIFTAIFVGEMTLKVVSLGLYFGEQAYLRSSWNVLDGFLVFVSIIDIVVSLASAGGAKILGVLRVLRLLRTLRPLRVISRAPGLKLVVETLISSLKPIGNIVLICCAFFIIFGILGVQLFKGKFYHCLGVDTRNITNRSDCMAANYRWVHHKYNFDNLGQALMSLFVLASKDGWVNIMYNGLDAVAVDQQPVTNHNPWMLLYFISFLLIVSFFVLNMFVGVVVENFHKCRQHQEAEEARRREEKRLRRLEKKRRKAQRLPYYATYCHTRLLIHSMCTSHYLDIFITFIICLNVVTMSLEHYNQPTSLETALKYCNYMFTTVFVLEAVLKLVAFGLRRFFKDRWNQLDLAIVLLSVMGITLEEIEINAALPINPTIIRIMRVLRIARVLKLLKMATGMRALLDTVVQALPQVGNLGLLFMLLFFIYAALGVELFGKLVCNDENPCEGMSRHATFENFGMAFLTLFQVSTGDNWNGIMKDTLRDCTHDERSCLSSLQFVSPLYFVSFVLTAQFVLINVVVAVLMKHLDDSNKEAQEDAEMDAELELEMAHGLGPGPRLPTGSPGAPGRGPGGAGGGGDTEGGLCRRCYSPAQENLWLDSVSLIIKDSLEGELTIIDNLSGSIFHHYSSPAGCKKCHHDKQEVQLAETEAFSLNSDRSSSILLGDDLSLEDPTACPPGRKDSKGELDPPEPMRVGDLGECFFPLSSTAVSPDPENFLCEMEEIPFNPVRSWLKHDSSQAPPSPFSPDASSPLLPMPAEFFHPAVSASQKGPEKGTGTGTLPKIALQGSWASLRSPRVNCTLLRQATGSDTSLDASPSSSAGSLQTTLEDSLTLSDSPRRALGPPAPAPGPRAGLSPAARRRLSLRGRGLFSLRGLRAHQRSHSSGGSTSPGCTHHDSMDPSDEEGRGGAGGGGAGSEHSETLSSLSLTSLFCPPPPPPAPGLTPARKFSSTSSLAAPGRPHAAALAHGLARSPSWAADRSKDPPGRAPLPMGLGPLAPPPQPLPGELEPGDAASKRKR
Method: as §1, §2

[3] = FLIPR window current, n = 3, read-out: IC50 CaV3.2 (LVA CaVs)
[4] = FLIPR, one separate experiment in quadruplicate (n = 4), read-out: IC50 of representative concentration-response curve, CaV3.2 window current

SMILES | IC50 (CaV3.2; IC50 CaV3.2 (LVA CaVs), FLIPR window current, n = 3) | IC50 (CaV3.2; IC50 of representative concentration-response curve, CaV3.2 window current, FLIPR, one separate experiment in quadruplicate (n = 4)) | IC50 [1] | extent of block of CaV3.3 whole-cell inward Ca2+ current [2] | IC50 [2] | IC50 (CaV3.2; [3]) | IC50 (CaV3.2; [4]) | effect of low concentrations on CaV3.1 channel current ([1]; QPatch, 49 nM–3.1 µM) | shift in the I–V relationship of CaV3.1 ([1]; QPatch, 2.5 µM and 15 µM) | reduced potency for CaV3.2 window current compared to DIM (CaV3.2; FLIPR)
O=C(c1cn(Cc2ccccc2)c2ccccc12)c1cn(Cc2ccccc2)c2ccccc12 [IX, bis(1-benzyl-1H-indol-3-yl)methanone] | 3.05 ± 0.51 µM | 3.28 µM | 47.4 ± 11.7 µM | partially blocked; also recorded: only partial inhibition | 2.09 ± 0.69 µM | – | – | – | – | –
O=C(c1c[nH]c2cc(Br)ccc12)c1c[nH]c2cc(Br)ccc12 [IV] | – | – | – | – | – | 57.3 ± 3.38 µM | – | – | – | –
c1ccc2c(Cc3c[nH]c4ccccc34)c[nH]c2c1 [DIM, 3,3′-diindolylmethane, reference compound] | – | – | 8.32 ± 1.53 µM | – | 9.63 ± 0.97 µM | 52.2 ± 3.8 µM | 54.7 µM | weakly enhanced | not accompanied by shifts | –
O=C(c1c[nH]c2ccccc12)c1c[nH]c2ccccc12 [DIM-one, 3,3′-diindolylmethanone] | – | – | 1.53 µM | poor inhibition | > 50 µM | 73.9 ± 2.48 µM | 74 µM | – | – | ~ 1.4 fold
